Measurements published in US8846951B2 (AbbVie Inc., priority 2009, dated 2014).
Read-outs that look alike come from different tables or passages of the source.

How the values were obtained:
[1] = biological target: T1, 5HT2C receptors (Homo sapiens, UniProt P28335); assay: Human 5-HT2C functional high throughput screening assay in CHO-K1 cells (calcium flux); assay type: cell-based; design: expressed in transfected cells; host or cells: CHO-K1 cells; details: for EC50: CHO-K1 cells, calcium flux; for Emax: CHO-K1, 5-HT2C, maximum functional response as percentage relative to the effect of serotonin
T1 sequence (P28335 33-458): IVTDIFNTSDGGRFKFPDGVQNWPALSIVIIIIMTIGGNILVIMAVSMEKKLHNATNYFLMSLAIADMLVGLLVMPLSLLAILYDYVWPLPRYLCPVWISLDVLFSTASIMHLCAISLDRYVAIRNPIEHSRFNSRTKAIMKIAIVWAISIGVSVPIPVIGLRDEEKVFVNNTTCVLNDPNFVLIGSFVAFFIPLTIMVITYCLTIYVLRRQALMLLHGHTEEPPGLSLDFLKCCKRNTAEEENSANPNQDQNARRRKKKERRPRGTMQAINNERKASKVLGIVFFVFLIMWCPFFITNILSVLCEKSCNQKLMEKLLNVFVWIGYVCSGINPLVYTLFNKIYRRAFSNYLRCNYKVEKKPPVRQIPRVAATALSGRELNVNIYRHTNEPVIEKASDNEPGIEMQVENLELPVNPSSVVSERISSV
Procedure, shortened: (§1)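 Serum-starved CHO-K1 cells carrying the receptor; Ca4 dye, 60 min RT. Test compound added after a 10 s baseline, fluorescence followed for 3 min. EC50 from 4-parameter fit; Emax given as % of serotonin effect.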

[2] = biological target: T2, 5HT2B receptors (Homo sapiens, UniProt P41595); assay: Human 5-HT2B functional high throughput screening assay in CHO-K1 cells (calcium flux); assay type: cell-based; details: for EC50: CHO-K1 cells, calcium flux
T2 construct: expressed in transfected cells; host or cells: CHO-K1 cells
Procedure, shortened: as §1

[3] = 5-HT2C agonist activity, read-out: EC50
[4] = 5-HT2B agonist activity, read-out: EC50
[5] = 5-HT2B, maximum functional response as percentage relative to the effect of serotonin

T2 sequence (P41595 whole entry): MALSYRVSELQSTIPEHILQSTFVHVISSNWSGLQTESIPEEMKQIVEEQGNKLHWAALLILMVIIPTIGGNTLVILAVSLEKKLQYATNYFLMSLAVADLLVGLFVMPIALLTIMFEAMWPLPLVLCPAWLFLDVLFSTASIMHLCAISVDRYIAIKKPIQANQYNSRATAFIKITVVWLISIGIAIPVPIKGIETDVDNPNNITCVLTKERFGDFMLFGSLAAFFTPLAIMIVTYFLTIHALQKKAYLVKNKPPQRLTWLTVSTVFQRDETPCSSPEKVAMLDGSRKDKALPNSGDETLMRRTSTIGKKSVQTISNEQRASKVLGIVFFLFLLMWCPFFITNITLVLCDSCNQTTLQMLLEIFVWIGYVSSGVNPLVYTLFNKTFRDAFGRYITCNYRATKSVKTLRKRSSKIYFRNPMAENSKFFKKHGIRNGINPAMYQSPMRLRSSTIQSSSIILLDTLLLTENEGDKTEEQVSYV

EC50 [1, 3] [nM] | Emax ([1]; read-out: Emax) [%] | EC50 [2, 4] [nM] | Emax [2, 5] | Emax ([2]; CHO-K1, 5-HT2B, maximum functional response as percentage relative to the effect of serotonin, read-out: Emax) [%] | SMILES | Emax [1] [%] | EC50 ([1]; EC50, 5-HT2C agonist activity) [nM] | Emax ([2]; CHO-K1) [%] | EC50 ([2]; EC50, 5-HT2B agonist activity) [nM]
6 | > 120 | > 10000 | inactive |  | Cc1ccc(-c2ccc3c(c2)C(=O)NC[C@@H]2CN(C)C[C@@H]32)o1 (relative stereo) [Example 203, Trans-2-methyl-8-(5-methylfuran-2-yl)-1,2,3,3a,4,5-hexahydrobenzo[e]pyrrolo[3,4-c]azepin-6(10bH)-one] |  |  |  | 
200 | > 120 | > 10000 | inactive |  | O=C1NC[C@@H]2CN(Cc3ccccc3)C[C@H]2c2ccc(O)cc21 (relative stereo) [Example 117, Trans-2-benzyl-8-hydroxy-1,2,3,3a,4,5-hexahydrobenzo[e]pyrrolo[3,4-c]azepin-6(10bH)-one] |  |  |  | 
9 | > 120 | > 10000 | inactive |  | CN1C[C@H]2CNC(=O)c3cc(-c4cccc(C=O)c4)ccc3[C@@H]2C1 (relative stereo) [Example 198, Trans-3-(2-methyl-6-oxo-1,2,3,3a,4,5,6,10b-octahydrobenzo[e]pyrrolo[3,4-c]azepin-8-yl)benzaldehyde] |  |  |  | 
0.8 | > 120 | > 10000 | inactive |  | CS(=O)(=O)c1cccc(-c2ccc3c(c2)C(=O)NC[C@@H]2CNC[C@@H]32)c1 (relative stereo) [Example 227, Trans-8-(3-(methylsulfonyl)phenyl)-1,2,3,3a,4,5-hexahydrobenzo[c]pyrrolo[3,4-e]azepin-6(10bH)-one] |  |  |  | 
90 | 85 | > 10000 | inactive |  | CC(C)(C)c1ccc(S(=O)(=O)N2Cc3cccnc3[C@@H]3CNC[C@H]3C2)cc1 (relative stereo) [Example 344, Trans-6-[(4-tert-butylphenyl)sulfonyl]-5,6,7,7a,8,9,10,10a-octahydropyrido[3,2-c]pyrrolo[3,4-e]azepine] |  |  |  | 
6 | 95 | > 10000 | inactive |  | CN1C[C@H]2CNC(=O)c3cc(-c4ccsc4Cl)ccc3[C@@H]2C1 (relative stereo) [Example 387, Trans-8-(2-chloro-3-thienyl)-2-methyl-2,3,3a,4,5,10b-hexahydropyrrolo[3,4-d][2]benzazepin-6(1H)-one] |  |  |  | 
0.3 | 110 | > 10000 | inactive |  | C[C@@H](O)c1cc(-c2ccc3c(c2)C(=O)NC[C@H]2CN(C)C[C@H]32)ccc1F (single isomer, unassigned) [Example 353] |  |  |  | 
7 | 90 | > 10000 | inactive |  | COc1cc(-c2ccc3c(c2)C(=O)NC[C@@H]2CN(C)C[C@@H]32)ccc1F (relative stereo) [Example 320, Trans-8-(4-fluoro-3-methoxyphenyl)-2-methyl-2,3,3a,4,5,10b-hexahydropyrrolo[3,4-d][2]benzazepin-6(1H)-one] |  |  |  | 
 | > 120 | > 10000 | inactive |  | COc1cccc(-c2ccc3c(c2)C(=O)NC[C@@H]2CN(C)C[C@@H]32)c1 (relative stereo) [Example 133, Trans-8-(3-methoxyphenyl)-2-methyl-1,2,3,3a,4,5-hexahydrobenzo[e]pyrrolo[3,4-c]azepin-6(10bH)-one] |  |  |  | 
100 | 90 | 6000 |  | 10 | N#Cc1ccccc1S(=O)(=O)N1Cc2cccnc2[C@@H]2CNC[C@H]2C1 (relative stereo) [Example 355, 2-[Trans-7,7a,8,9,10,10a-hexahydropyrido[3,2-c]pyrrolo[3,4-e]azepin-6(5H)-ylsulfonyl]benzonitrile] |  |  |  | 

The next lines start with the compound.

SMILES | EC50 [1, 3] [nM] | Emax ([1]; read-out: Emax) [%] | EC50 [2, 4] [nM] | Emax [2, 5] | Emax ([2]; CHO-K1, 5-HT2B, maximum functional response as percentage relative to the effect of serotonin, read-out: Emax) [%] | Emax [1] [%] | EC50 ([1]; EC50, 5-HT2C agonist activity) [nM] | Emax ([2]; CHO-K1) [%] | EC50 ([2]; EC50, 5-HT2B agonist activity) [nM]
CN1C[C@H]2CCN(C)c3ccc(Cl)cc3[C@@H]2C1 (relative stereo) [Example 395, Trans-9-chloro-2,6-dimethyl-1,2,3,3a,4,5,6,10b-octahydropyrrolo[3,4-d][1]benzazepine] |  |  |  |  |  | 50 | 500 | 65 | 80
O=C1NC[C@@H]2CNC[C@H]2c2cc3c(cc21)CCCC3 (relative stereo) [Example 258, Trans-1,2,3,3a,4,5,8,9,10,11-decahydronaphtho[2,3-c]pyrrolo[3,4-e]azepin-6(12bH)-one] |  |  |  | inactive |  | 100 | 10 |  | > 10000
O=S(=O)(c1cccc(F)c1)N1Cc2cccnc2[C@@H]2CNC[C@H]2C1 (relative stereo) [Example 337, Trans-6-[(3-fluorophenyl)sulfonyl]-5,6,7,7a,8,9,10,10a-octahydropyrido[3,2-c]pyrrolo[3,4-e]azepine] |  |  |  |  |  | 90 | 90 | 30 | 1000
C[C@H](Oc1ccc2c(c1)C(=O)NC[C@@H]1CNC[C@@H]21)c1ccccc1 (mixture of isomers) [Example 155, Trans-8-((S)-1-phenylethoxy)-1,2,3,3a,4,5-hexahydrobenzo[e]pyrrolo[3,4-c]azepin-6(10bH)-one] |  |  |  | inactive |  | > 120 | 50 |  | > 10000
O=C1NC[C@H]2CN(Cc3ccccc3)C[C@@H]2c2c(F)cc(F)cc21 [Example 105, (3aS,10bS)-2-Benzyl-8,10-difluoro-1,2,3,3a,4,5-hexahydrobenzo[c]pyrrolo[3,4-e]azepin-6(10bH)-one] |  |  |  | inactive |  | > 120 | 20 |  | > 10000
COC(=O)c1cccc2c1NCC[C@@H]1CNC[C@@H]21 (relative stereo) [Example 402, Methyl trans-1,2,3,3a,4,5,6,10b-octahydropyrrolo[3,4-d][1]benzazepine-7-carboxylate] |  |  |  |  |  | 100 | 30 | 75 | 200
O=C1NC[C@@H]2CNC[C@H]2c2cccc(OC(F)(F)F)c21 (relative stereo) [Example 103, Trans-7-(trifluoromethoxy)-1,2,3,3a,4,5-hexahydrobenzo[c]pyrrolo[3,4-e]azepin-6(10bH)-one] |  |  |  |  |  | > 120 | 0.7 | 110 | 80
Fc1ccc(F)c2c1OCC[C@H]1CNC[C@@H]21 (relative stereo) [Example 288, Cis-7,10-difluoro-2,3,3a,4,5,10b-hexahydro-1H-[1]benzoxepino[4,5-c]pyrrole] |  |  |  |  |  | 90 | 40 | 50 | 700
CN1C[C@H]2CNC(=O)c3cc(/C=C/C4CC4)ccc3[C@@H]2C1 (relative stereo) [Example 305, Trans-8-[(E)-2-cyclopropylvinyl]-2-methyl-2,3,3a,4,5,10b-hexahydropyrrolo[3,4-d][2]benzazepin-6(1H)-one] |  |  |  | inactive |  | 90 | 6 |  | > 10000
CN1C[C@H]2CNC(=O)c3cc(OCC4CCCCC4)ccc3[C@@H]2C1 (relative stereo) [Example 176, Trans-8-(cyclohexylmethoxy)-2-methyl-1,2,3,3a,4,5-hexahydrobenzo[e]pyrrolo[3,4-c]azepin-6(10bH)-one] | 200 |  | > 10000 | inactive |  | > 120 |  |  | 
